Test results taken from patent publication US11639343B2, “Compounds targeting and degrading BCR-ABL protein and its antitumor application” (ShanghaiTech University, priority 2019, dated 2023).

Experiments:
c-ABL protein = c-ABL protein (Homo sapiens, UniProt P00519); experiment: Western blot degradation of c-ABL in K562 cells; type: cell-based; parameters: Western blot was used to detect the expression of BCR-ABL and c-ABL protein in K562 cells; endogenous in cells; host or cells: K562; conditions: 16 hours, 1 nM-10 μM
Chain of c-ABL protein (P00519 whole entry): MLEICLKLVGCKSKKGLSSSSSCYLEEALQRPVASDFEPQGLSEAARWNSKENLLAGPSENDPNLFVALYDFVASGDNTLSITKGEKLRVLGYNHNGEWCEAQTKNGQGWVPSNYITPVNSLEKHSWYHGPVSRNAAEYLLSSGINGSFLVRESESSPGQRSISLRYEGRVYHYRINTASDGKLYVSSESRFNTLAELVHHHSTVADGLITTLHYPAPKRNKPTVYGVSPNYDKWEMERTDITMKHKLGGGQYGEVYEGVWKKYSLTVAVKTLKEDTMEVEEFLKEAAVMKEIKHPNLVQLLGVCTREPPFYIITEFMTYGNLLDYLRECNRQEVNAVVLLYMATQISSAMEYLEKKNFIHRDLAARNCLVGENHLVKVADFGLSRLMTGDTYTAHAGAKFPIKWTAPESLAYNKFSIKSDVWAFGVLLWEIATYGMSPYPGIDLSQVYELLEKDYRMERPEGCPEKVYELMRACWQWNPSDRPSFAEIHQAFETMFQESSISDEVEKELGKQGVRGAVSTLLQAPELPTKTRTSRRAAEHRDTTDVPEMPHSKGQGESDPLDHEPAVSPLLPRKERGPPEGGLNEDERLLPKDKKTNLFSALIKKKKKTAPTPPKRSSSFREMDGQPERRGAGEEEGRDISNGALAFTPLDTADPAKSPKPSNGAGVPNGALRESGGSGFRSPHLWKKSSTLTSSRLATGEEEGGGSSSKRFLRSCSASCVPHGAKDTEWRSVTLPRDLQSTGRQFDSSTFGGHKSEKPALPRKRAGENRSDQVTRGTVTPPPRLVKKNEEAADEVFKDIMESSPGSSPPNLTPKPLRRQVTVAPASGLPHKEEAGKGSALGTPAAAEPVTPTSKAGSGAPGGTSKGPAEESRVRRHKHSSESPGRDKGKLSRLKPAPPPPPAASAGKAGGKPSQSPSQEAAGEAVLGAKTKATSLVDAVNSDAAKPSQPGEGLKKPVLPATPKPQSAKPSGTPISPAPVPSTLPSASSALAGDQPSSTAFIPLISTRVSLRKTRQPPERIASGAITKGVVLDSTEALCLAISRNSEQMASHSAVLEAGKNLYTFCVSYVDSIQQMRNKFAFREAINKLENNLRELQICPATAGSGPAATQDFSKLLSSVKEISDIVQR
In short: (§1)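 Lysates were normalized by Bradford and run on SDS-PAGE with nitrocellulose transfer. DC50 was derived from band intensities by non-linear regression.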

HEK293 (BCR-ABL-) cells = experiment: CCK-8 proliferation inhibition, HEK293 cells; conditions: Homo sapiens, HEK293, 48 h, read-out: Proliferative inhibitory activity (IC50, nM) HEK293 (BCR-ABL-);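 further: Ten-point threefold dilution series starting at 10 µM, CCK-8 absorbance at 450 nm read after 2 h reagent incubation, DMSO-treated cells as negative control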
U937 (BCR-ABL-) cells = experiment: CCK-8 proliferation inhibition, U937 cells; type: cell-based, human; conditions: Homo sapiens, U-937; CCK-8, 48 hours of drug treatment, highest concentration 10 μM; read-out: Proliferative inhibitory activity (IC50, nM) U937 (BCR-ABL-);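 further: Ten-point threefold dilution series, absorbance at 450 nm after 2 h with CCK-8 reagent, DMSO as negative control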
BCR-ABL protein = BCR-ABL protein (Homo sapiens, UniProt P00519); experiment: Western blot degradation of BCR-ABL in K562 cells; type: cell-based; parameters: Western blot was used to detect the expression of BCR-ABL and c-ABL protein in K562 cells; BCR (fusion partner, P11274); endogenous in cells; host or cells: K562; the other entry of the earlier key: BCR (P11274, Breakpoint cluster region protein); conditions: 16 hours, 1 nM-10 μM
Chain of BCR-ABL protein (P00519 with tags, fused parts or gaps): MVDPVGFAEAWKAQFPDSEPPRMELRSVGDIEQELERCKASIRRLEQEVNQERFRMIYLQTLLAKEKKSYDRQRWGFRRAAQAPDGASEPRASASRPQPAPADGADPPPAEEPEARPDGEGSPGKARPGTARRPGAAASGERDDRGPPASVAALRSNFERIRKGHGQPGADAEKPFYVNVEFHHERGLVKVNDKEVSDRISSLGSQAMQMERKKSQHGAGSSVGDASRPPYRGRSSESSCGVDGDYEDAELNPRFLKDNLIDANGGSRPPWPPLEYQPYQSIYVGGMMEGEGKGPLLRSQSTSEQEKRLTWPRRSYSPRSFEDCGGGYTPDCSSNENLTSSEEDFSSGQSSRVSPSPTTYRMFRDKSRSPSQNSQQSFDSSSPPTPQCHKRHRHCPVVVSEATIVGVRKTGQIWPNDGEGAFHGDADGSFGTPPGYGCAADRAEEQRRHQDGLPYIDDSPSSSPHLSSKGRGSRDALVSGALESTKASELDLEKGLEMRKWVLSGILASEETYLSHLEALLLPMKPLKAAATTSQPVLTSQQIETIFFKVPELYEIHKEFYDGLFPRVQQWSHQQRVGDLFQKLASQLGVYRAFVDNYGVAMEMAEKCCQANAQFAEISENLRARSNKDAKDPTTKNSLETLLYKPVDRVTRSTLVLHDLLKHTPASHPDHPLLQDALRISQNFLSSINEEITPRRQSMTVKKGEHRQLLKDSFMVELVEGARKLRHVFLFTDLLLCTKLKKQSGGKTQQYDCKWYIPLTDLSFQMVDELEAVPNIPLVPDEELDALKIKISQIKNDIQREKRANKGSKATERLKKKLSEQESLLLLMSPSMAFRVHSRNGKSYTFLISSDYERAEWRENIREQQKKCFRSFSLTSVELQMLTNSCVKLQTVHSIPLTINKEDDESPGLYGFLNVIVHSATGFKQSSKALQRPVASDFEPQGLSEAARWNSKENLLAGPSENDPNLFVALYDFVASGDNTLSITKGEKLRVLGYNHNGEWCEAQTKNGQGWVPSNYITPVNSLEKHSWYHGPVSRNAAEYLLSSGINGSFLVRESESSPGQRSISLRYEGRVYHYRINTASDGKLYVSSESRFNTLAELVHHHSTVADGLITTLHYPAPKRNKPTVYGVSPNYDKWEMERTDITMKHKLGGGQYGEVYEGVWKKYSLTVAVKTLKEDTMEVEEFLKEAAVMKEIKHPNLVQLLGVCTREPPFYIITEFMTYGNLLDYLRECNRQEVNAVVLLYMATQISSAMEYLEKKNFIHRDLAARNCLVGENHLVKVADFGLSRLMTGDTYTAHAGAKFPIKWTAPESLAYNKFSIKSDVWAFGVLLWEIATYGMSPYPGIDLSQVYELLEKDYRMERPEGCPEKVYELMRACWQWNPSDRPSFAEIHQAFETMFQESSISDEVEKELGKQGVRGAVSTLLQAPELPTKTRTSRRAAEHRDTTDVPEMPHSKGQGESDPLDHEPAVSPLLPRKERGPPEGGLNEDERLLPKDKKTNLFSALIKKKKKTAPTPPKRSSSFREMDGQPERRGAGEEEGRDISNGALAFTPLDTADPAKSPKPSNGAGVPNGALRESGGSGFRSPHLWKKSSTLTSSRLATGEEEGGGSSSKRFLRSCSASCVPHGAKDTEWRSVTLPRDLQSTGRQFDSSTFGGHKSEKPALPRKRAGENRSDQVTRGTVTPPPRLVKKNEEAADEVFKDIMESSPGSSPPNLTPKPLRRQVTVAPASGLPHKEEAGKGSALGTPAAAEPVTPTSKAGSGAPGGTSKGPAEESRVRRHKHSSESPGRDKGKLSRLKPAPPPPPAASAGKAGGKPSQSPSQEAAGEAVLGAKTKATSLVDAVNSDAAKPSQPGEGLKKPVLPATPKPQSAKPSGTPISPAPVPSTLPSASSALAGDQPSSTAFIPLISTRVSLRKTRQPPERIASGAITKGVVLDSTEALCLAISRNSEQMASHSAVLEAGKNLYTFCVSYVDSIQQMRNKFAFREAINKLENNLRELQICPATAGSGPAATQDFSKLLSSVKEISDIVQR
In short: as §1

K562 (BCR-ABL+) cells = experiment: CCK-8 proliferation inhibition, K562 cells; type: cell-based, human; conditions: Homo sapiens, K562, 48 h, CCK-8, 48 hours of drug treatment; read-out: Proliferative inhibitory activity (IC50, nM) K562 (BCR-ABL+);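 further: Ten-point threefold dilution series starting at 10 µM, absorbance at 450 nm after 2 h with CCK-8, DMSO as negative control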

Row | DC50 (c-ABL protein) [nM] | IC50 (U937 (BCR-ABL-) cells) [nM] | DC50 (BCR-ABL protein) [nM] | IC50 (K562 (BCR-ABL+) cells) [nM] | SMILES | IC50 (HEK293 (BCR-ABL-) cells) [nM]
1 | 10 to 100 | > 10000 | 10 to 100 | 126 | COc1cc(Nc2c(C#N)cnc3cc(OCCCN4CCN(C(=O)CCCCNc5cccc6c5C(=O)N(C5CCC(=O)NC5=O)C6=O)CC4)c(OC)cc23)c(Cl)cc1Cl (stereo not drawn) [SIAIS151163, 4-((2,4-dichloro-5-methoxyphenyl)amino)-7-(3-(4-(5-((2-(2,6-dioxopiperidin-3-yl)-1,3-dioxoisoindolin-4-yl)amino)pentanoyl)piperazin-1-yl)propoxy)-6-methoxyquinoline-3-carbonitrile] | > 10000
2 | 10 to 100 | > 10000 | 1 to 10 | 40.4 | Cc1nc(Nc2ncc(C(=O)Nc3c(C)cccc3Cl)s2)cc(N2CCN(C(=O)CCOCCOCCOCCOCCNc3cccc4c3C(=O)N(C3CCC(=O)NC3=O)C4=O)CC2)n1 (stereo not drawn) [SIAIS151068, N-(2-chloro-6-methylphenyl)-2-((6-(4-(1-((2-(2,6-dioxopiperidin-3-yl)-1,3-dioxoisoindolin-4-yl)amino)-3,6,9,12-tetraoxapentadecan-15-oyl)piperazin-1-yl)-2-methylpyrimidin-4-yl)amino)thiazole-5-carboxamide] | > 10000
3 | 10 to 100 | > 10000 | 1 to 10 | 14.3 | Cc1nc(Nc2ncc(C(=O)Nc3c(C)cccc3Cl)s2)cc(N2CCN(C(=O)CCCCCCCCC(=O)N[C@H](C(=O)N3C[C@H](O)C[C@H]3C(=O)NCc3ccc(-c4scnc4C)cc3)C(C)(C)C)CC2)n1 [SIAIS151180, N-(2-chloro-6-methylphenyl)-2-((6-(4-(10-(((S)-1-((2S,4R)-4-hydroxy-2-((4-(4-methylthiazol-5-yl)benzyl)carbamoyl)pyrrolidin-1-yl)-3,3-dimethyl-1-oxobutan-2-yl)amino)-10-oxodecanoyl)piperazin-1-yl)-2-methylpyrimidin-4-yl)amino)thiazole-5-carboxamide] | > 10000
4 | 10 to 100 | > 10000 | 10 to 100 | 712 | COc1cc(Nc2c(C#N)cnc3cc(OCCCN4CCN(C(=O)CCCNc5cccc6c5C(=O)N(C5CCC(=O)NC5=O)C6=O)CC4)c(OC)cc23)c(Cl)cc1Cl (stereo not drawn) [SIAIS151162, 4-((2,4-dichloro-5-methoxyphenyl)amino)-7-(3-(4-(4-((2-(2,6-dioxopiperidin-3-yl)-1,3-dioxoisoindolin-4-yl)amino)butanoyl)piperazin-1-yl)propoxy)-6-methoxyquinoline-3-carbonitrile] | > 10000
5 | 100 to 1000 | > 10000 | 100 to 1000 | 7260 | COc1cc(Nc2c(C#N)cnc3cc(OCCCN4CCN(C(=O)CCOCCOCCOCCOCCOCCNc5cccc6c5C(=O)N(C5CCC(=O)NC5=O)C6=O)CC4)c(OC)cc23)c(Cl)cc1Cl (stereo not drawn) [SIAIS151161, 4-((2,4-dichloro-5-methoxyphenyl)amino)-7-(3-(4-(1-((2-(2,6-dioxopiperidin-3-yl)-1,3-dioxoisoindolin-4-yl)amino)-3,6,9,12,15-pentaoxaoctadecan-18-oyl)piperazin-1-yl)propoxy)-6-methoxyquinoline-3-carbonitrile] | > 10000
6 | 1 to 10 | > 10000 | < 1 | 1.22 | Cc1nc(Nc2ncc(C(=O)Nc3c(C)cccc3Cl)s2)cc(N2CCN(C(=O)CNc3cccc4c3C(=O)N(C3CCC(=O)NC3=O)C4=O)CC2)n1 (stereo not drawn) [SIAIS151072, N-(2-chloro-6-methylphenyl)-2-((6-(4-((2-(2,6-dioxopiperidin-3-yl)-1,3-dioxoisoindolin-4-yl)glycyl)piperazin-1-yl)-2-methylpyrimidin-4-yl)amino)thiazole-5-carboxamide] | > 10000
7 | 10 to 100 | > 10000 | 1 to 10 | 31.9 | Cc1nc(Nc2ncc(C(=O)Nc3c(C)cccc3Cl)s2)cc(N2CCN(C(=O)CCOCCOCCOCCOCCOCCNc3cccc4c3C(=O)N(C3CCC(=O)NC3=O)C4=O)CC2)n1 (stereo not drawn) [SIAIS151069, N-(2-chloro-6-methylphenyl)-2-((6-(4-(1-((2-(2,6-dioxopiperidin-3-yl)-1,3-dioxoisoindolin-4-yl)amino)-3,6,9,12,15-pentaoxaoctadecan-18-oyl)piperazin-1-yl)-2-methylpyrimidin-4-yl)amino)thiazole-5-carboxamide] | > 10000
8 | 10 to 100 | > 10000 | 10 to 100 | 459 | COc1cc(Nc2c(C#N)cnc3cc(OCCCN4CCN(C(=O)CCC(=O)Nc5cccc6c5CN(C5CCC(=O)NC5=O)C6=O)CC4)c(OC)cc23)c(Cl)cc1Cl (stereo not drawn) [SIAIS164105, 4-(4-(3-((3-cyano-4-((2,4-dichloro-5-methoxyphenyl)amino)-6-methoxyquinolin-7-yl)oxy)propyl)piperazin-1-yl)-N-(2-(2,6-dioxopiperidin-3-yl)-1-oxoisoindolin-4-yl)-4-oxobutanamide] | > 10000
9 | 100 to 1000 | > 10000 | 10 to 100 | 89 | Cc1nc(Nc2ncc(C(=O)Nc3c(C)cccc3Cl)s2)cc(N2CCN(C(=O)CCCCC(=O)N[C@H](C(=O)N3C[C@H](O)C[C@H]3C(=O)NCc3ccc(-c4scnc4C)cc3)C(C)(C)C)CC2)n1 [SIAIS151176, N-(2-chloro-6-methylphenyl)-2-((6-(4-(6-(((S)-1-((2S,4R)-4-hydroxy-2-((4-(4-methylthiazol-5-yl)benzyl)carbamoyl)pyrrolidin-1-yl)-3,3-dimethyl-1-oxobutan-2-yl)amino)-6-oxohexanoyl)piperazin-1-yl)-2-methylpyrimidin-4-yl)amino)thiazole-5-carboxamide] | > 10000
